Assay results: publication PMC11521309, “A novel 4-aminoquinoline chemotype with multistage antimalarial activity and lack of cross-resistance with PfCRT and PfMDR1 mutants” (PLOS Pathogens, 2024)
Values joined by “and” are separate entries in the source; they are usually repeats but may differ in a detail not shown here. Identical values can stand only once.

How the values were obtained:
[1] = system: pool of barcoded P. falciparum lines (Dd2 and 3D7 backgrounds); experiment: Resistome growth assay, pool of 51 barcoded lines; assay type: cell-based, Plasmodium falciparum; conditions: 3 x IC50 constant
Protocol: The resistome growth assay employs a parasite pool consisting of 51 barcoded lines including both Dd2 and 3D7 genetic backgrounds, with wild-type lines for both (S3 Table). Most lines used were derived from in vitro resistance selection experiments, with others having been CRISPR edited. All lines were barcoded via CRISPR editing of a 101bp barcode cassette into the non-essential pfpare locus (PF3D7_0709700). Parasites were cultured in RPMI-1640 medium supplemented with HEPES (5.94 g/L), NaHCO3 (2.1 g/L), glutamax (1×), hypoxanthine (50 mg/L), gentamycin ([…]), and AlbumaxII (5 g/L) at a […]. Parasite growth was monitored over 14 days by flow cytometry (Cytoflex, Beckman Coulter) by staining with 1× SYBR Green and 0.2 μM MitoTracker Deep Red. Parasitemia adjustments were made to maintain a healthy range of <5% parasitemia. Parasite cultures were harvested at day 14 and lysed by saponin (0.05%), with pellets washed twice with PBS. Barcodes were PCR amplified using 5 μL of parasite pellet and sequenced by Illumina amplicon sequencing.

P. falciparum Dd2^Dd2 = system: P. falciparum Dd2^Dd2; set-up: key to Phenotype, Dd2^Dd2: S: sensitive; R: resistant; conditions: cited from earlier work
P. falciparum Dd2^T93S = system: P. falciparum Dd2^T93S; set-up: key to Phenotype, Dd2^T93S: S: sensitive; R: resistant; conditions: cited from earlier work
P. falciparum Dd2^H97Y = system: P. falciparum Dd2^H97Y; set-up: key: S: sensitive; R: resistant; conditions: ref [19],[20],[51]; cited from earlier work
P. falciparum Dd2^F145I = system: P. falciparum Dd2^F145I; set-up: key to Phenotype, Dd2^F145I: S: sensitive; R: resistant; conditions: cited from earlier work
P. falciparum Dd2^I218F = system: P. falciparum Dd2^I218F; set-up: key to Phenotype, Dd2^I218F: S: sensitive; R: resistant; conditions: cited from earlier work
P. falciparum Dd2^M343L = system: P. falciparum Dd2^M343L; set-up: key to Phenotype, Dd2^M343L: S: sensitive; R: resistant; conditions: cited from earlier work
P. falciparum Dd2^G353V = system: P. falciparum Dd2^G353V; set-up: key to Phenotype, Dd2^G353V: S: sensitive; R: resistant; conditions: cited from earlier work
P. falciparum Dd2^3D7 = system: P. falciparum Dd2^3D7; set-up: key: S: sensitive; R: resistant; conditions: ref [19],[20],[51]; cited from earlier work
P. falciparum 7G8^7G8 = system: P. falciparum 7G8^7G8; set-up: key to Phenotype, 7G8^7G8: S: sensitive; R: resistant; conditions: cited from earlier work
P. falciparum 7G8^F145I = system: P. falciparum 7G8^F145I; set-up: key to Phenotype, 7G8^F145I: S: sensitive; R: resistant; conditions: cited from earlier work
P. falciparum 7G8^C350R = system: P. falciparum 7G8^C350R; set-up: key to Phenotype, 7G8^C350R: S: sensitive; R: resistant; conditions: cited from earlier work
P. falciparum NF10^YF = system: P. falciparum NF10^YF; set-up: method as in ref 1 Veiga et al. 2016; conditions: means ± SEM, N 6; ref 1 Veiga et al. 2016; read-out: IC50 NF10YF; cited from earlier work
P. falciparum NF10^NF = system: P. falciparum NF10^NF; set-up: method as in ref 1 Veiga et al. 2016; conditions: means ± SEM, N 6; ref 1 Veiga et al. 2016; read-out: IC50 NF10NF; cited from earlier work
[2] = system: P. berghei PbGFP-Luccon liver stage; experiment: In vitro inhibition of liver stage infection of Huh-7 cells, bioluminescence; assay type: cell-based, Plasmodium berghei; conditions: 10 nM, positive control
Protocol: In vitro inhibition of Plasmodium liver stage infection was assessed using bioluminescence data from Huh-7 cells infected with a firefly-luciferase-expressing P. berghei line, PbGFP-Luccon, in the presence of various compound concentrations. […] One day before drug treatment and infection, 10^4 Huh-7 cells/well were seeded in 96-well plates. The medium was then replaced by an infection medium (culture medium supplemented with 50 μg/mL gentamycin and 0.8 μg/mL amphotericin B) containing desired concentrations of test compounds. Fresh sporozoites recovered from salivary glands of infected female Anopheles stephensi mosquitoes were added to seeded Huh-7 cells at a 1:1 proportion, followed by centrifugation at 1700g for 5 minutes and incubation for 46 hours at 37°C under 5% CO2. Compound toxicity against Huh-7 cells was assessed by measuring […] using the Alamar Blue assay (Invitrogen). IC50 values were calculated using nonlinear regression analysis (GraphPad Prism version 9).

PfCRT 7G8 isoform = experiment: [3H]CQ uptake in PfCRT-containing proteoliposomes; assay type: biochemical, Plasmodium falciparum; conditions: 1 μM; PfCRT 7G8, 7G8^F145I and 7G8^C350R
Protocol: Purified PfCRT variants were reconstituted in preformed liposomes made of E. coli total lipids:cholesteryl hemisuccinate 97:3 (w/w) at a protein-to-lipid ratio of 1:150 (w/w). The lumen of the proteoliposomes was composed of 100 mM KPi, pH 7.5, and 2 mM β-mercaptoethanol. Uptake of [^3H]CQ (1 Ci/mmol) or [^3H]PPQ (1 Ci/mmol) was performed by diluting PfCRT-containing proteoliposomes (30 ng of PfCRTper reaction) in an uptake buffer containing 100 mM Tris/MES, pH 5.5, in the presence or absence of 1 μM of the test compounds. In addition, 1 μM valinomycin was added to the reaction to generate a K^+ diffusion potential-driven membrane potential (ΔΨ). […] Filters were dried and incubated in a scintillation cocktail, and the radioactivity captured on the filters was counted in a Hidex SL300 scintillation counter. The efficiency of detection was calculated with a standard curve of known concentrations of each radiolabeled compound, and this was used to transform decays per minute (dpm) into pmol. The nonspecific interaction of each compound with nitrocellulose filters was determined by measuring mock uptake in the absence of liposomes or proteoliposomes. These values (determined for each experiment) were used to calculate background uptake in liposomes or proteoliposomes. […]

[3] = Dd2Dd2, mean ± SEM, ref 1 (Ross et al., 2018)
[4] = Dd2T93S, mean ± SEM, ref 2 (Dhingra et al., 2019)
[5] = Dd2F145I, mean ± SEM, ref 1 (Ross et al., 2018)
[6] = Dd2I218F, mean ± SEM, ref 2 (Dhingra et al., 2019)
[7] = Dd2M343L, mean ± SEM, ref 1 (Ross et al., 2018)
[8] = Dd2G353V, mean ± SEM, ref 1 (Ross et al., 2018)

## CNC(=O)c1ccc(-c2cnc3cnc(C(=O)N(C)c4ccc(Cl)cc4)cn23)cc1 [KDU691]
[1]
  recrudescence of barcoded pool after: 9 days and 7 days

## Clc1ccc2c(N3CCN(CCCN4CCN(c5ccnc6cc(Cl)ccc56)CC4)CC3)ccnc2c1 [PPQ, piperaquine]
P. falciparum Dd2^Dd2; [3]
  IC50: 27.6 ± 3.1 nM
  IC90: 50.2 ± 4.2 nM
P. falciparum Dd2^Dd2; ref [19],[20],[51]
  Phenotype, Dd2^Dd2: S
P. falciparum Dd2^T93S; [4]
  IC50: 31.9 ± 5.6 nM
  IC90: 6880 ± 3420 nM
P. falciparum Dd2^T93S; ref [19],[20],[51]
  Phenotype, Dd2^T93S: R
P. falciparum Dd2^H97Y
  Phenotype, Dd2^H97Y: R
P. falciparum Dd2^F145I; [5]
  IC50: 65.3 ± 3.1 nM
  IC90: 5770 ± 666 nM
P. falciparum Dd2^F145I; a: sensitized to CQ compared to the parental line but not fully sensitive, ref [19],[20],[51]
  Phenotype, Dd2^F145I: R
P. falciparum Dd2^I218F; [6]
  IC50: 42 ± 20.8 nM
  IC90: 8600 ± 1660 nM
P. falciparum Dd2^I218F; ref [19],[20],[51]
  Phenotype, Dd2^I218F: R
P. falciparum Dd2^M343L; [7]
  IC50: 37.6 ± 4.8 nM
  IC90: 93.1 ± 9.7 nM
P. falciparum Dd2^M343L; ref [19],[20],[51]
  Phenotype, Dd2^M343L: R
P. falciparum Dd2^G353V; [8]
  IC50: 31.8 ± 7.4 nM
  IC90: 3740 ± 1980 nM
P. falciparum Dd2^G353V; ref [19],[20],[51]
  Phenotype, Dd2^G353V: R
P. falciparum Dd2^3D7
  Phenotype, Dd2^3D7: S
P. falciparum 7G8^7G8; 7G87G8, mean ± SEM, ref 3 (Kim et al., 2019)
  IC50: 21.4 ± 1 nM
P. falciparum 7G8^7G8; ref [19],[20],[51]
  Phenotype, 7G8^7G8: S
P. falciparum 7G8^F145I; 7G8F145I, mean ± SEM, ref 3 (Kim et al., 2019)
  IC50: 28.7 ± 1 nM
P. falciparum 7G8^F145I; ref [19],[20],[51]
  Phenotype, 7G8^F145I: R
P. falciparum 7G8^C350R; 7G8C350R, mean ± SEM, ref 3 (Kim et al., 2019)
  IC50: 36.5 ± 2 nM
P. falciparum 7G8^C350R; ref [19],[20],[51]
  Phenotype, 7G8^C350R: R
P. falciparum NF10^YF
  IC50: 41.8 ± 3.4 nM
P. falciparum NF10^NF
  IC50: 35.4 ± 2.1 nM

## O=C1C(O)=C([C@H]2CC[C@H](c3ccc(Cl)cc3)CC2)C(=O)c2ccccc21 [atovaquone]
[2]
  effect on hepatic infection: almost completely ablated infection
PfCRT 7G8 isoform
  competitive inhibition of [3H]CQ or [3H]PPQ transport: No competitive inhibition

## CCc1nc(N)nc(N)c1-c1ccc(Cl)cc1 [pyrimethamine]
PfCRT 7G8 isoform
  competitive inhibition of [3H]CQ or [3H]PPQ transport: No competitive inhibition
